Experimental data reported in patent US20010028879A1, “Inhibition of graft versus host disease” (priority 1998, published 2001).
Like-named read-outs stand apart in the source and are kept apart here.

Tested on: Peripheral human blood mononuclear cells PBMCs
Conditions: for Cytokine Profile: after 7 days
Method: Peripheral human blood mononuclear cells PBMCs, which is a collection of white blood cells comprising about 40% T-cells, were stressed by contact with aqueous solutions of hydrogen peroxide, of various concentrations, for 20 minutes. Their immediate survival was measured, along with their immediate phytohaemagglutinin (PHA) response. Then their survival after 24 hours was measured, followed by their PHA response (tritiated thymidine uptake following mitogenic stimulation with PHA) and cytokine profile after 7 days.

## OO [Example H2O2, hydrogen peroxide]
100 μmole/L H2O2, 20 minutes
  24 hr survival %: 100%
  Immediate PHA response: 2000
  Immediate survival %: 80-90%
  Cytokine Profile: IFN↓
300 μmole/L H2O2, 20 minutes
  24 hr survival %: 50%
  Immediate PHA response: 2000
  Immediate survival %: 80-90%
  Cytokine Profile: IFN↓
1 mmole/L H2O2, 20 minutes
  24 hr survival %: 40%
  Immediate PHA response: 400
  Immediate survival %: 80-90%
  Cytokine Profile: IFN↓
3 mmole/L H2O2, 20 minutes
  24 hr survival %: 40%
  Immediate PHA response: 400
  Immediate survival %: 80-90%
  Cytokine Profile: IFN↓
